From paper PMC10460728 (Journal of Pharmacokinetics and Pharmacodynamics, 2023)
“And” between values parts separate entries of the source, which are not always exact repeats. Equal entries are not always repeated. Where two headings read alike, the source gives them in different places.

Experiments:
[1] = test system: CYP3A; details: multiple oral 600 mg rifampicin; cited from earlier work
[2] = test system: CYP3A4; details: cited from earlier work
[3] = test system: CYP2B6; assay: CYP2B6 mRNA induction in cultured human hepatocytes
[4] = test system: P-gp; assay: P-gp mRNA induction in cultured human hepatocytes; assay type: cell-based
[5] = PBPK models of enzalutamide and M2 (Simcyp)
From the text: Many of the physicochemical properties and plasma protein binding data were obtained internally and also referenced from FDA documents, which are available from the FDA website. […] Accordingly, the solution formulation option in the Simcyp model was used.
The PBPK models of CYP2C8 inhibitor (gemfibrozil), CYP3A4 substrate (midazolam), and P-gp substrate (digoxin) were used from the Simcyp software library with models that were verified for their intended purpose.

[6] = molecular target: P-gp (human MDR1) (Homo sapiens, UniProt P08183); assay: In vitro P-gp inhibition: 3H-digoxin permeation across control and MDR1-expressing LLC-PK1 cell monolayers
Chain of P-gp (human MDR1) (P08183 whole entry): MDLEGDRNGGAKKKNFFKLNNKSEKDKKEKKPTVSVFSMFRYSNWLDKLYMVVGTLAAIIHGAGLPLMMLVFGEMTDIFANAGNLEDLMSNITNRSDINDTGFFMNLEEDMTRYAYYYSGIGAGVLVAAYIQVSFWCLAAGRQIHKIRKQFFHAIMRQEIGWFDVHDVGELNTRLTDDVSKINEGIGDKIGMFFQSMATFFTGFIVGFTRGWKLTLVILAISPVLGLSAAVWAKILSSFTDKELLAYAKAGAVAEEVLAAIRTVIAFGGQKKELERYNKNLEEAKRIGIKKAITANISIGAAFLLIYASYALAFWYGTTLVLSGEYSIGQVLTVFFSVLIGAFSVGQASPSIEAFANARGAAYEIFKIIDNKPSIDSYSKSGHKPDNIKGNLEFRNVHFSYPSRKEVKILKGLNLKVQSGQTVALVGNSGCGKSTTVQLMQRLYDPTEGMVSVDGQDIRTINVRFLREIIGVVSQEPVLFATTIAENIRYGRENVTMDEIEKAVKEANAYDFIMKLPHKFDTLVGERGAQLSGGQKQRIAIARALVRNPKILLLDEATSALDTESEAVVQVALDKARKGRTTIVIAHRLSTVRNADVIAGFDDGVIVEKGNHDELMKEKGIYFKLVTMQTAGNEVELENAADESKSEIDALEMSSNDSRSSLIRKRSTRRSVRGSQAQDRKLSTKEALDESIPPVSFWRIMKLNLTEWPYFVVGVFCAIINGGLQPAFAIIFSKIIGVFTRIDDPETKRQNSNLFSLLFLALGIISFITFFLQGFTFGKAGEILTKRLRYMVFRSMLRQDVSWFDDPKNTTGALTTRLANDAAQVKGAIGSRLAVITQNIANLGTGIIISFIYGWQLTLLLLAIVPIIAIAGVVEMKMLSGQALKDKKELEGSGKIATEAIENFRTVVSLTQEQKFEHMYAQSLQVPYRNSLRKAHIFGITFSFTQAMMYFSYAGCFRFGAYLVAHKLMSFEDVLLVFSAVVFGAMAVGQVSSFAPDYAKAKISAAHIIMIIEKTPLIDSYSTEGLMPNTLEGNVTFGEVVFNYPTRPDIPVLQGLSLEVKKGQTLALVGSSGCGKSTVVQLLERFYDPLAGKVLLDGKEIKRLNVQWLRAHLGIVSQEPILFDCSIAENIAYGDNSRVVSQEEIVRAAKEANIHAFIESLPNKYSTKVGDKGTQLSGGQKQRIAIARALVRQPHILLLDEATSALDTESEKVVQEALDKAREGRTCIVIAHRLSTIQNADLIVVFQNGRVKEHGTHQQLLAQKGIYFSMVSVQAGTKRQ
Method: MDR1-expressing cells (porcine kidney epithelial LLC-PK1 cells transfected with human MDR1 cDNA) was used. The MDR1-expressing cells were seeded at a density of 4 × 10^4 cells/insert in plates and were incubated in a CO2 incubator (37 °C, CO2: 5%) for 7 to 9 days to prepare cell monolayers. […] After incubation for 4 h at 37 °C, a 70-μL aliquot of the incubation solutions was collected as the analytical sample from the opposite compartment of that spiked with test solutions (receiver compartment). The collected samples were immediately combined with 10 mL of scintillator, and the radioactivity was counted using the LSC. Permeability coefficient (Papp) of ^3H-digoxin was calculated using the following equation: Pappcm/sec=[dQ/dt]/A/C0 where dQ/dt is the transport rate (dpm/sec); A is the membrane area (cm^2); C0 is the initial concentration (dpm/mL). The ratio of permeability coefficient (Papp ratio) was calculated from the basal to apical Papp and apical to basal Papp according to the following equation: Pappratio=BasaltoapicalPapp/ApicaltobasalPapp
Furthermore, the ratios of the Papp ratios in MDR1-expressing cells to the Papp ratios in control cells were calculated as corrected Papp ratio according to the following equation: CorrectedPappratio=PappratiooftheMDR1expressingcells/Pappratioofthecontrolcells
The % of control was calculated from the corrected Papp ratio according to the following equation: \% \,of\,control=CorrectedPappratio\,in\,the\,absence\,or\,presence\,of\,inhibitors/CorrectedPappratio\,in\,the\,absence\,of\,inhibitors×100

[7] = test system: CYP2C19; assay: CYP2C19 mRNA induction in cultured human hepatocytes
[8] = test system: CYP2C8; assay: CYP2C8 mRNA induction in cultured human hepatocytes
[9] = mean
[10] = plasma; ref FDA CP review; cited from earlier work
[11] = test system: CYP3A4
[12] = test system: CYP2C9; assay: CYP2C9 mRNA induction in cultured human hepatocytes
[13] = test system: CYP1A2; assay: CYP1A2 mRNA induction in cultured human hepatocytes
[14] = molecular target: T1, OAT3 (Homo sapiens, UniProt Q8TCC7); assay: In vitro OAT3 inhibition (internal data); assay type: cell-based
T1 sequence (Q8TCC7 1-542): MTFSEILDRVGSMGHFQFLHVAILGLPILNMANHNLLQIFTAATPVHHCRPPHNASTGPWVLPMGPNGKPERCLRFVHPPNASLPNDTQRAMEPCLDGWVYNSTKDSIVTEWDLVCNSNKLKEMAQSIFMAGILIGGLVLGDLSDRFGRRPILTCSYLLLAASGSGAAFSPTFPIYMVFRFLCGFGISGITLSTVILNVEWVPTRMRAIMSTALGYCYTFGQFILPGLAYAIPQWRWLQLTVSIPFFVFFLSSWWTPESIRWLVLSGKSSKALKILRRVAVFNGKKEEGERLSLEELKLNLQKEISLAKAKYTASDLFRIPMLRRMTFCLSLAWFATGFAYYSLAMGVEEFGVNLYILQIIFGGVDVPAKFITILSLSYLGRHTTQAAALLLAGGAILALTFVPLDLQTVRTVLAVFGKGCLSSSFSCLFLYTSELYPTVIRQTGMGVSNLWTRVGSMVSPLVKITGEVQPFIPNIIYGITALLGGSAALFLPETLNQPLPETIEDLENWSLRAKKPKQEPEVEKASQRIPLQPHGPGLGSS

[15] = multiple 160 mg doses of enzalutamide, mean (SD)
[16] = with/without enzalutamide 160 mg multiple doses, geometric mean ratio (90% CI)
[17] = 3H-digoxin 1 µmol/L, additive 0.1 µmol/L
[18] = 3H-digoxin 1 µmol/L, additive 0.3 µmol/L
[19] = 3H-digoxin 1 µmol/L, additive 1 µmol/L
[20] = 3H-digoxin 1 µmol/L, additive 3 µmol/L
[21] = 3H-digoxin 1 µmol/L, additive 10 µmol/L
[22] = 3H-digoxin 1 µmol/L, additive 25 µmol/L
[23] = 100 µmol/L (enzalutamide, M2: two lots of hepatocyte)
[24] = once-daily oral 160 mg enzalutamide for 49 days
[25] = single oral 160 mg enzalutamide

**Q.** Which “Decrease in midazolam AUC by rifampicin” value [1] does the source give for `Cc1ncc2n1-c1ccc(Cl)cc1C(c1ccccc1F)=NC2` [Midazolam, midazolam] here?
**A.** more than 90%

**Q.** What about the “Midazolam AUC ratio with rifampicin” value [1] of the same molecule?
**A.** less than 0.1

**Q.** And the “AUC without enzalutamide, observed” value ([2]; mean (SD))?
**A.** 32.0 (12.8) ng·h/mL

**Q.** What about the “Cmax without enzalutamide, observed” value ([2]; mean (SD)) of the same molecule?
**A.** 9.98 (3.17) ng/mL

**Q.** And the “AUC with enzalutamide, observed” value [2, 15]?
**A.** 4.22 (0.784) ng·h/mL

**Q.** And the “Cmax with enzalutamide, observed” value [2, 15]?
**A.** 2.29 (0.868) ng/mL

**Q.** What about the “AUC ratio, observed” value [2, 16] of the same molecule?
**A.** 0.14 (0.12–0.17)

**Q.** And the “Cmax ratio, observed” value [2, 16]?
**A.** 0.23 (0.20–0.27)

**Q.** For `CCC1(c2ccccc2)C(=O)NC(=O)NC1=O` [Phenobarbital, phenobarbital, reference compound], which “Fold increase CYP2B6 mRNA” value ([3]; 750 µmol/L) is on record?
**A.** 6.90 ± 3.66 fold

**Q.** And the “Fold increase P-gp mRNA” value ([4]; 750 µmol/L)?
**A.** 2.61 ± 0.59 fold

**Q.** For `CC1(C)C(=O)N(c2ccc(C#N)c(C(F)(F)F)c2)C(=S)N1c1ccc(C(N)=O)c(F)c1` [M2, N-desmethyl enzalutamide], which “CLint,HLM” value ([5]; PBPK model parameter, see text) is on record?
**A.** 1.399 μL/min/mg protein

**Q.** What about the “CYP3A4 contribution to M2 elimination” value ([5]; set to recover M2 exposure after multiple doses of enzalutamide) of the same molecule?
**A.** 9%

**Q.** What about the “Corrected Papp ratio” value [6, 17] of the same molecule?
**A.** […]

**Q.** What about the “MDR1-expressing cells Papp ratio” value [6, 17] of the same molecule?
**A.** […]

**Q.** What about the “Control cells Papp ratio” value [6, 18] of the same molecule?
**A.** […]

**Q.** What about the “Corrected Papp ratio” value [6, 18] of the same molecule?
**A.** […]

**Q.** And the “MDR1-expressing cells Papp ratio” value [6, 18]?
**A.** […]

**Q.** And the “Control cells Papp ratio” value [6, 19]?
**A.** […]

**Q.** What about the “Corrected Papp ratio” value [6, 19] of the same molecule?
**A.** […]

**Q.** And the “MDR1-expressing cells Papp ratio” value [6, 19]?
**A.** […]

**Q.** What about the “Control cells Papp ratio” value [6, 20] of the same molecule?
**A.** […]

**Q.** And the “Corrected Papp ratio” value [6, 20]?
**A.** […]

**Q.** And the “MDR1-expressing cells Papp ratio” value [6, 20]?
**A.** […]

**Q.** And the “Control cells Papp ratio” value [6, 21]?
**A.** […]

**Q.** And the “Corrected Papp ratio” value [6, 21]?
**A.** […]

**Q.** And the “MDR1-expressing cells Papp ratio” value [6, 21]?
**A.** […]

**Q.** And the “Control cells Papp ratio” value [6, 22]?
**A.** […]

**Q.** What about the “Corrected Papp ratio” value [6, 22] of the same molecule?
**A.** […]

**Q.** What about the IC50 ([6]; read-out: IC50 (P-gp-mediated 3H-digoxin transport), 3H-digoxin 1 µmol/L, MDR1-expressing LLC-PK1 cells) of the same molecule?
**A.** 1090 nM

**Q.** What about the Ki ([6]; read-out: Ki on P-gp, IC50 regarded as Ki, PBPK model input) of the same molecule?
**A.** 1090 nM

**Q.** And the “Fold increase CYP2B6 mRNA” value ([3]; 10 µmol/L)?
**A.** […]

**Q.** And the “Fold increase CYP2B6 mRNA” value [3, 23]?
**A.** […]

**Q.** What about the “Fold increase P-gp mRNA” value ([4]; 1 µmol/L) of the same molecule?
**A.** […]

**Q.** And the “Fold increase P-gp mRNA” value ([4]; 10 µmol/L)?
**A.** […]

**Q.** And the “Fold increase P-gp mRNA” value [4, 23]?
**A.** […]

**Q.** What about the “Fold increase CYP2C19 mRNA” value ([7]; 1 µmol/L) of the same molecule?
**A.** […]

**Q.** What about the “Fold increase CYP2C19 mRNA” value ([7]; 10 µmol/L) of the same molecule?
**A.** […]

**Q.** What about the “Fold increase CYP2C19 mRNA” value [7, 23] of the same molecule?
**A.** […]

**Q.** What about the “Fold increase CYP2C8 mRNA” value ([8]; 1 µmol/L) of the same molecule?
**A.** […]

**Q.** And the “Fold increase CYP2C8 mRNA” value ([8]; 10 µmol/L)?
**A.** […]

**Q.** What about the “AUCtau, observed” value [9, 24] of the same molecule?
**A.** 278.3 µg·h/mL

**Q.** And the “Cmax, observed” value [9, 24]?
**A.** 12680 ng/mL

**Q.** What about the “Cmin, observed” value [9, 24] of the same molecule?
**A.** 10570 ng/mL

**Q.** And the “MPR (MWC), observed” value [9, 24]?
**A.** 0.913

**Q.** And the “AUCinf, observed” value [9, 25]?
**A.** 395 µg·h/mL

**Q.** What about the “Cmax, observed” value [9, 25] of the same molecule?
**A.** 887 ng/mL

**Q.** And the “t1/2, observed” value [9, 25]?
**A.** 179 h

**Q.** What about the fu [10] of the same molecule?
**A.** 0.0467

**Q.** And the “Fold increase CYP3A4 mRNA” value ([11]; 10 µmol/L)?
**A.** […]

**Q.** And the “Fold increase CYP3A4 mRNA” value ([11]; hepatocytes)?
**A.** […]

**Q.** What about the “Indmax on CYP3A4, calibrated” value ([11]; hepatocytes) of the same molecule?
**A.** […]

**Q.** And the “Indmax (maximal fold induction) CYP3A4” value ([11]; mRNA, human hepatocytes)?
**A.** […]

**Q.** And the EC50 ([11]; read-out: IndC50 CYP3A4, mRNA, human hepatocytes)?
**A.** […]

**Q.** And the “Fold increase CYP2C9 mRNA” value ([12]; 1 µmol/L)?
**A.** […]

**Q.** And the “Fold increase CYP2C9 mRNA” value ([12]; 10 µmol/L)?
**A.** […]

**Q.** And the “Fold increase CYP2C9 mRNA” value [12, 23]?
**A.** […]

**Q.** And the “Fold increase CYP1A2 mRNA” value ([13]; 1 µmol/L)?
**A.** […]

**Q.** And the “Fold increase CYP1A2 mRNA” value ([13]; 10 µmol/L)?
**A.** […]

**Q.** And the Ki [14]?
**A.** 11500 nM
